This is an account of results in US7344706B2, “UV absorber compositions comprising a hydroxyphenyltriazine compound” (Ciba Specialty Chemicals Corp., priority 2002, dated 2008).

Series [1] is described as follows: Solubility in cosmetic oils. The format is physicochemical. Particulars: percentages refer to weight.
Series [2] can be described thus: Spectral properties (UV absorption). The format is physicochemical. The source says: Spectral Properties: [table]

For `CCCCC(CC)COc1ccc(-c2nc(-c3ccc(OC)cc3)nc(-c3ccc(OCC(CC)CCCC)cc3OCC(CC)CCCC)n2)c(O)c1` (centres unmarked) [Example 1, 2-((2,4-(2-ethyl-hexyloxy)-phenyl))-4-((2-hydroxy-4-(2-ethyl-hexyloxy)-phenyl))-6-(4-methoxyphenyl)-(1,3,5)-triazine], in series [1] (solvent di-C12-C13alkylmalates), the “solubility in di-C12-C13alkylmalates” value was above 25%. In series [1] (solvent glyceryl-trioctanoate), the solubility in glyceryl-trioctanoate is given as above 30%. Besides, in series [2], the ε is 50443 liters/(mol/cm) and the λmax is recorded as 322 nm. For the same molecule, the “E [1%, 1 cm] (in dioxane)” value in series [2] (in dioxane) turned out to be 681.62.
